One data set concerns the target 5HT2A (Homo sapiens, UniProt P28223). Briefly: cell-based. The note with it: agonist mode; read-out: EC50.
Data set [1] deals with AD2. Type of data set: cell-based, human.
In a further data set the test system is HCV replicon 1b. Briefly: microbe, parasite or virus in culture. The note with it: Hepatitis C virus, read-out: EC50 for Virus. In kind it is cell-based.
Data set [2] can be described thus: in vitro.
Data set [3] has as its system influenza A virus WSN/33 (H1N1). Also noted: species or system BALB/c mice. The note with it: mouse, in vivo.
The target in the next data set is CB2 (Homo sapiens, UniProt P34972). Briefly: cell-based. The note with it: read-out: IC50.
Data set [4] deals with Influenza virus A/California/07/2009 (H1N1)pdm09. The data set is described as follows: microbe, parasite or virus in culture. The note with it: H1N1, MDCK, read-out: EC50 (mean ± SD). Type of data set: cell-based.
Data set [5] concerns Influenza virus A/California/2/2014 (H3N2). Briefly: microbe, parasite or virus in culture. In kind it is cell-based. The note with it: H3N2, MDCK, read-out: EC50 (mean ± SD).
For the next data set, the system named is A/PR/8/34 (H1N1). Also noted: species or system BALB/c mice. The note with it: mouse, in vivo.
A short description of data set [6]: Cytotoxicity in MDCK cells without viral infection. The note with it: dog.
The test system of the next data set is RSV long. The data set is described as follows: microbe, parasite or virus in culture. Type of data set: cell-based, respiratory syncytial virus. The note with it: read-out: EC50 for Virus.
For the next data set, the target named is Alpha1a (Homo sapiens, UniProt P35348). Briefly: cell-based. The note with it: read-out: IC50.
A further data set has as its target T1, CCKa (Homo sapiens, UniProt P32238).
T1 sequence (P32238 1-428): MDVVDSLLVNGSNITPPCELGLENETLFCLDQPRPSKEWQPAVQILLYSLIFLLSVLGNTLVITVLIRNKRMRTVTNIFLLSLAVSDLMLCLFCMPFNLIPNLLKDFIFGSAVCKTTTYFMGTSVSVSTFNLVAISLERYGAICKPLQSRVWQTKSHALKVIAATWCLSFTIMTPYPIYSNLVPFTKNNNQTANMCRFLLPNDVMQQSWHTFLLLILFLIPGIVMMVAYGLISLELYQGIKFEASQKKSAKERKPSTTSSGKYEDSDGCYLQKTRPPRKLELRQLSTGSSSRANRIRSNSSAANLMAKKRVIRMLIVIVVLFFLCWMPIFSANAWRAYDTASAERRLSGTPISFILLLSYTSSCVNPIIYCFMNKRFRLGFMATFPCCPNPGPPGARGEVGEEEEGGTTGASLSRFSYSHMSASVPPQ
The data set is described as follows: cell-based. The note with it: read-out: IC50.

Another data set addresses M1 (Homo sapiens, UniProt P11229). The data set is described as follows: cell-based.
A further data set addresses M2 (Homo sapiens, UniProt P08172). The data set is described as follows: cell-based.
The target in another data set is M3 (Homo sapiens, UniProt P20309). The data set is described as follows: cell-based.
For data set [7], the system named is AD2. Type of data set: cell-based, human. The note with it: read-out: EC50.
The test system of another data set is HPIV-3 C243. The data set is described as follows: microbe, parasite or virus in culture. Type of data set: cell-based, human parainfluenza virus type 3. The note with it: Human respirovirus 3, LLC-MK2, read-out: EC50 for Virus.
Data set [8] is described as follows: in vitro. The note with it: rhesus monkey.
Another data set concerns the target H2 (Homo sapiens, UniProt P25021). Briefly: cell-based. The note with it: read-out: EC50.

The structures appear in SMILES notation. Where a name gives a salt, the structure may show the parent alone.

Sequence of M1 (P11229 whole entry): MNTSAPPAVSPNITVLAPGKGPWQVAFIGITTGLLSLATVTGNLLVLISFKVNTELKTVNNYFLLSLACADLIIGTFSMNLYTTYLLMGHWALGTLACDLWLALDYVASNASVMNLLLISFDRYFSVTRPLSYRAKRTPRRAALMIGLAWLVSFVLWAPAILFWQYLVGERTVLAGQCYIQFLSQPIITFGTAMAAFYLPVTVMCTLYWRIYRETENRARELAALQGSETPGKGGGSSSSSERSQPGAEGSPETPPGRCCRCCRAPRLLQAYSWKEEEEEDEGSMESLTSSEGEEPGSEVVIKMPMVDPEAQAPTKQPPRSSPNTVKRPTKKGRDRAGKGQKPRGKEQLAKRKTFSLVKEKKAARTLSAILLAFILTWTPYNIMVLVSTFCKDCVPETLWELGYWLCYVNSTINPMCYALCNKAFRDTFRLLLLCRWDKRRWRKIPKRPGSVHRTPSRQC
Sequence of 5HT2A (P28223 whole entry): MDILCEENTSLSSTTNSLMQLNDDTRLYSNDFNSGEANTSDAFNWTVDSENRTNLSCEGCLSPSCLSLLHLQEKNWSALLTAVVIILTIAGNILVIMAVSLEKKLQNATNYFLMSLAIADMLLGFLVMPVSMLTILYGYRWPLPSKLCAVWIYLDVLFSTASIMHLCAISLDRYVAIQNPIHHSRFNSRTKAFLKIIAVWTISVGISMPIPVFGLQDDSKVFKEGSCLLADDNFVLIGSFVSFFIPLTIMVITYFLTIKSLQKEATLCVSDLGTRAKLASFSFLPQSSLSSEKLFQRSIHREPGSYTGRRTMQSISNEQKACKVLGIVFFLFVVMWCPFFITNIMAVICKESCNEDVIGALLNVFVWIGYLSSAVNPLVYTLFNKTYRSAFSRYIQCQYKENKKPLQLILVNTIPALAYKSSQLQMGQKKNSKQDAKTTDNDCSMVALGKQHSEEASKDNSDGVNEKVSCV
Sequence of H2 (P25021 whole entry): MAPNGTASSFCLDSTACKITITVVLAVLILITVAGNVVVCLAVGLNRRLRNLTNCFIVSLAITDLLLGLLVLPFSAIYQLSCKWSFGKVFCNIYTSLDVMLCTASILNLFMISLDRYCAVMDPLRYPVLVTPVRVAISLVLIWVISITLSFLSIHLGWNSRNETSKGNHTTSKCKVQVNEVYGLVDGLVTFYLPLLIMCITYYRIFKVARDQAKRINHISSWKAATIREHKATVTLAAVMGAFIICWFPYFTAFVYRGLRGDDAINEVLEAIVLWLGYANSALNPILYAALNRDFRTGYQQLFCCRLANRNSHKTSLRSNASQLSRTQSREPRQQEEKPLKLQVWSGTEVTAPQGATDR
Sequence of Alpha1a (P35348 whole entry): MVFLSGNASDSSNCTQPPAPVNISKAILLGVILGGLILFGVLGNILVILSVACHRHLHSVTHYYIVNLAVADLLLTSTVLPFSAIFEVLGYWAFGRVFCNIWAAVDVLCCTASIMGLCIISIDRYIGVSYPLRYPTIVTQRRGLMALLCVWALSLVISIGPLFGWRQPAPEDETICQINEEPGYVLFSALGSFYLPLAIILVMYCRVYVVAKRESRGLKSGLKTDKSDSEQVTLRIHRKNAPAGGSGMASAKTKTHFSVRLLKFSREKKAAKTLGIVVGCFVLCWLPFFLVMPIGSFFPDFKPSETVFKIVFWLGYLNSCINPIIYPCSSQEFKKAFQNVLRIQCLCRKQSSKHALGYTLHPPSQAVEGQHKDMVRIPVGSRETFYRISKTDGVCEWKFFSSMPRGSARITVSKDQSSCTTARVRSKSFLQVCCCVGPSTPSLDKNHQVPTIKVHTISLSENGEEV
Sequence of M2 (P08172 whole entry): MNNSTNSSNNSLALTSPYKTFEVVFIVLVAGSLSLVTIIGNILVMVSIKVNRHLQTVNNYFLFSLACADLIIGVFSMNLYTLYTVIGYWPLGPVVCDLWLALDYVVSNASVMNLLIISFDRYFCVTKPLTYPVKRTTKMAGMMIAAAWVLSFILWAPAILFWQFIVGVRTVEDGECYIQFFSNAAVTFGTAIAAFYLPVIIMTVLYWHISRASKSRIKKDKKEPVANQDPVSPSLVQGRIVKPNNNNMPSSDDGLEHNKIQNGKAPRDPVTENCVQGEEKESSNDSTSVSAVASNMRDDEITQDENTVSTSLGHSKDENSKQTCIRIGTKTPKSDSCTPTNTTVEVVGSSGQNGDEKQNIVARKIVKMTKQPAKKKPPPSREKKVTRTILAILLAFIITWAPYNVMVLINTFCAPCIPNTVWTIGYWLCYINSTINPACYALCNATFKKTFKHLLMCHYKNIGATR
Sequence of CB2 (P34972 whole entry): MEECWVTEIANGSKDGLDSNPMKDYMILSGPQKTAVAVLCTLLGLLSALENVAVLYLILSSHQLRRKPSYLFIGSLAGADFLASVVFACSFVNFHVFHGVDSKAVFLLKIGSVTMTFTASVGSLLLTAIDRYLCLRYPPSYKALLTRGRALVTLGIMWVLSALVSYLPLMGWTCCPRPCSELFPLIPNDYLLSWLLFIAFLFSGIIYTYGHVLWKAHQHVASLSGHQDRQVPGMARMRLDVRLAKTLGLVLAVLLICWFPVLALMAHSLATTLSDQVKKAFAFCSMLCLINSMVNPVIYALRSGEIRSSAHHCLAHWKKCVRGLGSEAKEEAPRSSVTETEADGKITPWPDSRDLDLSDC
Sequence of M3 (P20309 whole entry): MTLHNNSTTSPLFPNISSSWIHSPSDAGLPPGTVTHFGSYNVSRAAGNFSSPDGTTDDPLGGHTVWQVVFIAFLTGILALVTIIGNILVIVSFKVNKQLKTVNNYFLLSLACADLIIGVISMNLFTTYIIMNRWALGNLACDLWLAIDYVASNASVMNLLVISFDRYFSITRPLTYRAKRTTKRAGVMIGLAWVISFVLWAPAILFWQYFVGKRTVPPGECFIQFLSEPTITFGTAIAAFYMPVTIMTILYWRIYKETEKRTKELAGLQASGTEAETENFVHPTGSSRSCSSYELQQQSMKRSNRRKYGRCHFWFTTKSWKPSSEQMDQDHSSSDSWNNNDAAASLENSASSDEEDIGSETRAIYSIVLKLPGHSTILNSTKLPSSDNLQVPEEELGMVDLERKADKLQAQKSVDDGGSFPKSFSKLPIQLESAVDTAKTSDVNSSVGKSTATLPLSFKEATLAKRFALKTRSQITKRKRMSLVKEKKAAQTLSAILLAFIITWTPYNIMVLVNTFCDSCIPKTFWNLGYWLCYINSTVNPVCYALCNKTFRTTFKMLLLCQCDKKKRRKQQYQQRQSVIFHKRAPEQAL

With `NCCc1c[nH]c2ccc(C(N)=O)cc12` [5-CT, reference compound], the 50% effective concentration (EC50) (as a rule, the concentration giving half of the maximal effect) at 5HT2A worked out at 9.35 nM.
With `Nc1nc2ccc(Cl)cc2c2nc(-c3ccco3)nn12` [CGS-15943, reference compound], in the data set with AD2 [1], the midpoint of inhibition, the IC50, lay at 0.11 nM.
On to `COC(=O)N[C@H](C(=O)N1CCC[C@H]1c1nc(-c2ccc(-c3ccc(-c4c[nH]c([C@@H]5CCCN5C(=O)[C@@H](NC(=O)OC)C(C)C)n4)cc3)cc2)c[nH]1)C(C)C` [BMS-790052, reference compound], for which the EC50 in the data set on HCV replicon 1b came to 0.021 nM. The CC50 in the data set “in vitro [2]” was > 3 nM.
Turning to `NC(=O)c1nc(F)c[nH]c1=O` [Favipiravir], in data set [3], the “animals died (of n = 8)” value is “six” and the “day on which body weight of surviving mice began to recover” value was 9 days.
`COc1ccc(C(=O)c2c(C)n(CCN3CCOCC3)c3cc(I)ccc23)cc1` [AM630, reference compound]: the IC50 (as a rule, the concentration that inhibits the measured activity by half) on CB2 was determined as 234 nM.
On to `O=C1c2c(O)c(=O)ccn2N([C@@H]2c3ccccc3SCc3c2ccc(F)c3F)[C@@H]2COCCN12` [Baloxavir], for which the EC50 in [4] was found to be 1.06 ± 0.22 nM; in data set [5], 0.61 ± 0.02 nM. This compound also yielded a mortality rate in the data set on A/PR/8/34 (H1N1) of 40%. The CC50 in [6] stood at 14400 ± 1520 nM.
Regarding `O=c1n(Cc2nc3ccccc3n2CCCCO)c2cnccc2n1C1CC1` [BMS-433771, reference compound], in the data set on RSV long, the concentration for a half-maximal effect (EC50) is 14 nM.
For `COc1ccccc1N1CCN(CCCNc2c(C)c(=O)n(C)c(=O)n2C)CC1` [5-Methylurapidil, reference compound], the IC50 at Alpha1a was determined as 3.65 nM.
On to `CCCCCN(CCCCC)C(=O)C(CCC(=O)O)NC(=O)c1ccc(Cl)c(Cl)c1` (stereo not drawn) [Lorglumide, reference compound], for which the IC50 on CCKa turned out to be 256 nM.
On to `C#CCOC(=O)C1=CCCN(C)C1` [Arecaidine propargyl ester, reference compound], for which the EC50 amounted to 0.78 nM at M1, 76.2 nM at M2 and 0.31 nM at M3.
For `CCNC(=O)[C@H]1O[C@@H](n2cnc3c(N)ncnc32)[C@H](O)[C@@H]1O` [NECA, reference compound], in the data set with AD2 [7], the EC50 amounted to 27.8 nM.
Turning to `NC(=O)c1ncn([C@@H]2O[C@H](CO)[C@@H](O)[C@H]2O)n1` [Ribavirin, reference compound], in the data set with HPIV-3 C243, the half-maximal effective concentration (EC50) came out at 20300 nM. Further, the CC50 in “in vitro [8]” was > 100000 nM.
In the case of `Cc1nc(N)sc1CCN` [Amthamine dihydrobromide, reference compound], the EC50 on H2 turned out to be 1340 nM.

Source of the values: article PMC10056986 (Pharmaceuticals, 2023).
